# Patent US6441021B1, “Sulfonated amino acid derivatives and metalloproteinase inhibitors containing the same” (Shionogi & Co., Ltd., priority 1996, dated 2002)
# pIC50: −log10 of the molar value.
# Biological target: T1, MMP-9 (92 kDa, gelatinase B; type IV collagenase) (Homo sapiens, UniProt P14780)
# T1 construct: endogenous in cells; enzyme purified from the conditioned medium
# Assay: Assay of type IV collagenase inhibitors: activated MMP-9 with type IV collagenase activity kit substrate, fluorescent intensity
# Assay type: biochemical
# Conditions: not given
# Description: (1) Isolation and Purification of MMP-9 (92 kDa, Gelatinase B)
# Type IV collagenase (MMP-9) was purified according to the methods descrived in the following literature.
# Subsequently, activated MMP-9 was obtained by treating the pro-MMP-9 with trypsin.
# (2) Assay Methods of Type IV Collagenase Inhibitors
# Collagenase assay was performed using the activated MMP-9 described above and the substrate supplied in the type IV collagenase activity kit (YAGAI, inc.), according to the manufacturer's protocol. The following 4 assays are performed per compound (inhibitor).
# (A) substrate (type IV collagenase), enzyme (MMP-9), inhibitor
# (B) substrate (type IV collagenase), inhibitor
# (C) substrate (type IV collagenase), enzyme (MMP-9)
# (D) substrate (type IV collagenase)
# According to the manufacturer's protocol, fluorescent intensity was measured and percent inhibition was determined by the following equation.
# Inhibition (%)={1−(A−B)/(C−D)}×100
# T1 sequence (P14780 107-707 limits assumed): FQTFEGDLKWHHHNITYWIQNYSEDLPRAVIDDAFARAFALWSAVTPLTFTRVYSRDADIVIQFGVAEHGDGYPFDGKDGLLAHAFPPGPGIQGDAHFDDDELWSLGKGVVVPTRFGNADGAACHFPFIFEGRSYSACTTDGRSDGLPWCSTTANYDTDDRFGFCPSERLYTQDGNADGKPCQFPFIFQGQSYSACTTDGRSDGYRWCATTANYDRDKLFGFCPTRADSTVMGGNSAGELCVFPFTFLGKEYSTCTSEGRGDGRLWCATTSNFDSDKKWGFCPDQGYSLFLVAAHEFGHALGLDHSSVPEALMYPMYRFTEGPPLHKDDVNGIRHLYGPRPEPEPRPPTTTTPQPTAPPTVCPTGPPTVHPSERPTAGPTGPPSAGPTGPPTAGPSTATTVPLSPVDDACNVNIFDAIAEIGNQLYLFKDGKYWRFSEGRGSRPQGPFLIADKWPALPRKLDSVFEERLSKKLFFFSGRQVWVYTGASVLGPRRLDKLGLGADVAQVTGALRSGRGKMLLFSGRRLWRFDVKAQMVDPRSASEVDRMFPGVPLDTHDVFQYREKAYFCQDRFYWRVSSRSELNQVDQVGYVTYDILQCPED
row,pIC50,SMILES
1,6.71,O=C(O)[C@@H](Cc1ccccc1)NS(=O)(=O)c1ccc(-c2nnn(-c3ccc(F)cc3)n2)cc1 [Example 231]
2,6.60,CC(C)[C@@H](NS(=O)(=O)c1ccc(NC(=O)c2ccc([N+](=O)[O-])cc2)cc1)C(=O)O [Example 201]
3,6.24,O=Cn1cc(C[C@@H](NS(=O)(=O)c2ccc(-c3nnn(-c4ccccc4)n3)cc2)C(=O)O)c2ccccc21 [Example 219]
4,7.11,CCC(C)[C@@H](NS(=O)(=O)c1ccc(-c2nnn(-c3ccc(OC)cc3)n2)cc1)C(=O)O (some centres unmarked) [Example 222]
5,7.97,CSc1ccc(-n2nnc(-c3ccc(S(=O)(=O)N[C@H](Cc4ccccc4)C(=O)O)cc3)n2)cc1 [Example 246]
6,5.96,CC(C)[C@@H](NS(=O)(=O)c1ccc(NC(=O)c2ccc(-c3ccccc3)cc2)cc1)C(=O)O [Example 195]
7,6.84,O=C(O)[C@@H](Cc1ccccc1)NS(=O)(=O)c1ccc(-c2nnn(-c3ccc(Cl)cc3)n2)cc1 [Example 232]
8,7.24,Cc1ccc(C(=O)Nc2ccc(S(=O)(=O)N[C@@H](C(=O)O)C(C)C)cc2)cc1 [Example 196]
9,7.62,O=C(O)[C@@H](Cc1c[nH]c2ccccc12)NS(=O)(=O)c1ccc(-c2nnn(-c3ccccc3)n2)cc1 [Example 210]
10,7.62,Cc1ccc(-n2nnc(-c3ccc(S(=O)(=O)N[C@@H](C(=O)O)C(C)C)cc3)n2)cc1 [Example 242]
11,6.76,COc1ccc(C(=O)Nc2ccc(S(=O)(=O)N[C@@H](C(=O)O)C(C)(C)C)cc2)cc1 [Example 203]
12,6.55,O=C(O)[C@@H](Cc1ccccc1)NS(=O)(=O)c1ccc(-c2nnn(-c3ccc([N+](=O)[O-])cc3)n2)cc1 [Example 230]
13,6.04,O=C(O)[C@@H](Cc1ccccc1)N(Cc1ccccc1)S(=O)(=O)c1ccc(-c2nnn(-c3ccccc3)n2)cc1 [Example 258]
14,6.13,O=C(O)C(Cc1cccc2ccccc12)NS(=O)(=O)c1ccc(-c2nnn(-c3ccccc3)n2)cc1 (centres unmarked) [Example 218]
15,7.91,CC(C)[C@@H](NS(=O)(=O)c1ccc(-c2nnn(-c3ccc(Br)cc3)n2)cc1)C(=O)O [Example 225]
16,7.27,CN(C)c1ccc(C(=O)Nc2ccc(S(=O)(=O)N[C@H](Cc3c[nH]c4ccccc34)C(=O)O)cc2)cc1 [Example 181]
17,6.58,N#Cc1ccc(-n2nnc(-c3ccc(S(=O)(=O)N[C@H](Cc4ccccc4)C(=O)O)cc3)n2)cc1 [Example 235]
18,8.49,CSc1ccc(C(=O)Nc2ccc(S(=O)(=O)N[C@H](Cc3c[nH]c4ccccc34)C(=O)O)cc2)cc1 [Example 184]
19,6.97,O=C(O)[C@@H](Cc1ccccc1)NS(=O)(=O)c1ccc(-c2nnn(-c3ccc(Br)cc3)n2)cc1 [Example 228]
20,7.60,COc1ccc(C(=O)Nc2ccc(S(=O)(=O)N[C@H](Cc3c[nH]c4ccccc34)C(=O)O)cc2)cc1 [Example 178]
21,6.82,COc1ccc(-n2nnc(-c3ccc(S(=O)(=O)N[C@H](Cc4ccccc4)C(=O)O)cc3)n2)cc1 [Example 234]
22,8.46,CSc1ccc(-n2nnc(-c3ccc(S(=O)(=O)N[C@H](Cc4c[nH]c5ccccc45)C(=O)O)cc3)n2)cc1 [Example 247]
23,7.35,O=C(Nc1ccc(S(=O)(=O)N[C@H](Cc2c[nH]c3ccccc23)C(=O)O)cc1)c1ccc([N+](=O)[O-])cc1 [Example 180]
24,7.28,CC(C)[C@@H](NS(=O)(=O)c1ccc(-c2nnn(-c3ccc(F)cc3)n2)cc1)C(=O)O [Example 243]
25,7.37,O=C(Nc1ccc(S(=O)(=O)N[C@H](Cc2c[nH]c3ccccc23)C(=O)O)cc1)c1ccc(F)cc1 [Example 185]
26,6.28,CC(C)[C@H](C(=O)O)N(CCCCN)S(=O)(=O)c1ccc(Oc2ccccc2)cc1 [Example 255]
27,5.69,CC(C)[C@@H](NS(=O)(=O)c1ccc(NC(=O)c2ccccc2)cc1)C(=O)O [Example 199]
28,7.88,Cc1ccc(-n2nnc(-c3ccc(S(=O)(=O)N[C@H](Cc4c[nH]c5ccccc45)C(=O)O)cc3)n2)cc1 [Example 241]

row,SMILES,pIC50
1,COc1ccc(C(=O)Nc2ccc(S(=O)(=O)N[C@@H](C(=O)O)C(C)C)cc2)cc1 [Example 200],6.76

# Same assay, conditions: activated MMP-9, type IV collagenase activity kit substrate, fluorescent intensity; concentration at which percent inhibition reaches 50%
row,SMILES,pIC50
1,Cc1ccc2[nH]cc(CC(NS(=O)(=O)c3ccc(Oc4ccccc4)cc3)C(=O)O)c2c1 (racemic) [Example 1a-1-65],6.54
2,O=C(NO)[C@@H](Cc1ccccc1)NS(=O)(=O)c1ccc(-c2ccccc2)cc1 [Example 1b-1-1],7.52
3,COc1ccc(-c2ccc(S(=O)(=O)N[C@H](Cc3ccccc3)C(=O)O)cc2)cc1 [Example 1a-1-50],6.26
4,O=C(NO)[C@@H](Cc1ccccc1)NS(=O)(=O)c1ccc(C(F)(F)F)cc1 [Example 1b-1-10],5.68
5,CSc1ccc(-c2ccc(S(=O)(=O)N[C@H](Cc3ccccc3)C(=O)O)cc2)cc1 [Example 1a-1-54],7.12
6,CN(C)c1cccc2c(S(=O)(=O)N[C@H](Cc3ccccc3)C(=O)NO)cccc12 [Example 1b-1-11],5.77
7,CC(C)[C@@H](NS(=O)(=O)c1ccc(-c2ccc(F)cc2)cc1)C(=O)O [Example 1a-1-48],5.94
8,CSc1ccc(-c2ccc(S(=O)(=O)N[C@@H](C(=O)O)C(C)C)cc2)cc1 [Example 1a-1-55],7.40
9,CC(C)[C@@H](NS(=O)(=O)c1ccc(-c2ccc(C(F)(F)F)cc2)cc1)C(=O)O [Example 1a-1-46],5.95
10,O=C(O)[C@@H](Cc1ccccc1)NS(=O)(=O)c1ccc(-c2ccccc2)cc1 [Example 1a-1-1],6.62
11,CC(C)[C@@H](NS(=O)(=O)c1ccc(-c2ccc(-c3ccccc3)cc2)cc1)C(=O)O [Example 1a-1-45],7.40
12,O=C(O)[C@@H](Cc1c[nH]c2ccccc12)NS(=O)(=O)c1ccc(-c2ccc(F)cc2)cc1 [Example 1a-1-41],6.51
13,CC(C)[C@@H](NS(=O)(=O)c1ccc(-c2ccccc2)cc1)C(=O)O [Example 1a-1-43],6.20
14,CC(C)[C@@H](NS(=O)(=O)c1ccc(-c2ccc(C(C)(C)C)cc2)cc1)C(=O)O [Example 1a-1-44],5.72

# Continued, values first:
row,pIC50,SMILES
1,8.92,O=C(NO)[C@@H](Cc1ccccc1)NS(=O)(=O)c1ccc(Oc2ccccc2)cc1 [Example 1b-1-60]
2,5.52,O=C(NO)[C@@H](Cc1ccccc1)NS(=O)(=O)c1ccc([N+](=O)[O-])cc1 [Example 1b-1-27]
3,7.69,Cc1ccc2[nH]cc(CC(NS(=O)(=O)c3ccc(-c4ccccc4)cc3)C(=O)NO)c2c1 (racemic) [Example 1b-1-17]
4,8.30,O=C(NO)[C@@H](Cc1c[nH]c2ccccc12)NS(=O)(=O)c1ccc(-c2ccccc2)cc1 [Example 1b-1-33]
5,6.70,O=C(NO)[C@@H](Cc1ccccc1)NS(=O)(=O)c1ccc(O)cc1 [Example 1b-1-24]
6,9.41,CC(C)[C@@H](NS(=O)(=O)c1ccc(Oc2ccccc2)cc1)C(=O)NO [Example 1b-1-63]

# Same assay, conditions: inhibition of type IV collagenase (MMP-9), concentration at which percent inhibition reaches 50%
row,SMILES,pIC50
1,Cc1ccc(-c2ccc(S(=O)(=O)N[C@H](Cc3c[nH]c4ccccc34)C(=O)O)s2)cc1 [Example 1a-3-3],7.97
2,C#Cc1ccc(C#Cc2ccc(S(=O)(=O)N[C@H](Cc3c[nH]c4ccccc34)C(=O)O)cc2)cc1 [Example 1a-2-11],7.32
3,Cc1ccc(C#Cc2ccc(S(=O)(=O)N[C@H](Cc3ccccc3)C(=O)O)s2)cc1 [Example 1a-2-37],7.04
4,Cc1ccc(-c2ccc(S(=O)(=O)N[C@@H](C(=O)O)C(C)C)s2)cc1 [Example 1a-3-7],6.64
5,COc1ccc(-c2ccc(S(=O)(=O)N[C@H](Cc3ccccc3)C(=O)O)s2)cc1 [1a-3-10],8.08
6,CC(C)[C@@H](NS(=O)(=O)c1ccc(C#Cc2ccc(F)cc2)cc1)C(=O)O [Example 1a-2-19],6.69
7,CCC(C)[C@@H](NS(=O)(=O)c1ccc(C#Cc2ccc(OC)cc2)cc1)C(=O)O (some centres unmarked) [Example 1a-2-21],5.43
8,O=C(O)[C@@H](Cc1c[nH]c2ccccc12)NS(=O)(=O)c1ccc(C#Cc2ccccc2)cc1 [Example 1a-2-2],6.63
9,O=C(O)[C@@H](Cc1c[nH]c2ccccc12)NS(=O)(=O)c1ccc(-c2nc3ccccc3s2)cc1 [Example 1a-1-83],5.75
10,Nc1ccc(C#Cc2ccc(S(=O)(=O)N[C@H](Cc3c[nH]c4ccccc34)C(=O)O)cc2)cc1 [Example 1a-2-9],7.24
11,CC(C)[C@@H](NS(=O)(=O)c1ccc(-c2ccc(F)cc2)s1)C(=O)O [Example 1a-3-8],5.89
12,CSc1ccc(-c2ccc(S(=O)(=O)N[C@@H](C(=O)O)C(C)C)s2)cc1 [Example 1a-3-9],7.85
13,O=C(O)[C@@H](Cc1c[nH]c2ccccc12)NS(=O)(=O)c1ccc(C#Cc2ccc([N+](=O)[O-])cc2)cc1 [Example 1a-2-7],7.16
14,CN(C)c1ccc(N=Nc2ccc(S(=O)(=O)N[C@H](Cc3ccccc3)C(=O)O)cc2)cc1 [Example 1a-1-86],6.46
15,COc1ccc(C#Cc2ccc(S(=O)(=O)N[C@@H](C(=O)O)C(C)(C)C)cc2)cc1 [Example 1a-2-20],5.47

# Continued, values first:
row,pIC50,SMILES
1,8.57,O=C(Nc1ccc(S(=O)(=O)N[C@H](Cc2c[nH]c3ccccc23)C(=O)O)cc1)c1ccc(Br)cc1 [Example 183]
2,7.06,Cc1ccc(-n2nnc(-c3ccc(S(=O)(=O)N[C@H](Cc4ccccc4)C(=O)O)cc3)n2)cc1 [Example 233]
3,5.35,O=C(Nc1ccc(S(=O)(=O)N[C@H](Cc2ccccc2)C(=O)O)cc1)c1ccncc1 [Example 205]
4,8.23,CSc1ccc(-n2nnc(-c3ccc(S(=O)(=O)N[C@@H](C(=O)O)C(C)C)cc3)n2)cc1 [Example 245]
